Measured values published in PubChem BioAssay (NCI).
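Following 48 hours of exposure in 96-well plates, responses at five concentrations were used to interpolate endpoints linearly. At the TGI there is no net growth.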

How the values were obtained:
Assay in all cases: growth of human tumour cells (NCI), 48 h
[1] = system: 786-0 renal
[2] = system: A549 NSCLC
[3] = system: ACHN renal
[4] = system: COLO 205 colon
[5] = system: HCC-2998 colon
[6] = system: HCT-15 colon
[7] = system: HOP-62 NSCLC
[8] = system: KM12 colon
[9] = system: MALME-3M melanoma
[10] = system: MCF7 breast
[11] = system: NCI/ADR-RES ovarian
[12] = system: OVCAR-4 ovarian
[13] = system: SF-295 CNS
[14] = system: SK-MEL-2 melanoma
[15] = system: SNB-75 CNS
[16] = system: TK-10 renal
[17] = system: U251 CNS
[18] = system: UACC-62 melanoma
[19] = system: NCI-H226 lung
[20] = system: T-47D breast

| SMILES | TGI [1] | TGI [2] | TGI [3] | TGI [4] | TGI [5] | TGI [6] | TGI [7] | TGI [8] | TGI [9] | TGI [10] | TGI [11] | TGI [12] | TGI [13] | TGI [14] | TGI [15] | TGI [16] | TGI [17] | TGI [18] | TGI [19] | TGI [20] |
| --- | --- | --- | --- | --- | --- | --- | --- | --- | --- | --- | --- | --- | --- | --- | --- | --- | --- | --- | --- | --- |
| C/C=C1/CC(C(=O)OC)N(C(=O)OCc2ccccc2)C1=S (stereo unspecified) | > 100 µM | > 100 µM | > 100 µM | > 100 µM | > 100 µM | > 100 µM | > 100 µM | > 100 µM | > 100 µM | > 100 µM | > 100 µM | > 100 µM | > 100 µM | > 100 µM | > 100 µM | > 100 µM | > 100 µM | > 100 µM | – | – |
| N#CC(C#N)=c1c(=O)c2c3ccccc3cc3cccc1c32 | > 100 µM | > 100 µM | > 100 µM | > 100 µM | > 100 µM | > 100 µM | > 100 µM | > 100 µM | – | – | > 100 µM | > 100 µM | – | > 100 µM | > 100 µM | – | > 100 µM | > 100 µM | > 100 µM | > 100 µM |
| O=C(CC(NC(=O)OCc1ccccc1)C(=O)NC1Cc2ccccc2C1=O)OCc1ccccc1 (stereo unspecified) | > 100 µM | > 100 µM | > 100 µM | – | > 100 µM | > 100 µM | > 100 µM | > 100 µM | > 100 µM | > 100 µM | > 100 µM | – | > 100 µM | > 100 µM | > 100 µM | > 100 µM | > 100 µM | > 100 µM | > 100 µM | – |
| CC(C)OC(=O)NCCn1cc(-c2ccccc2)nn1 | > 100 µM | > 100 µM | > 100 µM | > 100 µM | > 100 µM | > 100 µM | > 100 µM | > 100 µM | > 100 µM | > 100 µM | > 100 µM | > 100 µM | > 100 µM | > 100 µM | > 100 µM | > 100 µM | > 100 µM | – | > 100 µM | – |
| O=C(Cc1ccccc1)NN1C(=O)C(Cl)C1c1ccc(Cl)cc1 (stereo unspecified) | > 100 µM | > 100 µM | > 100 µM | > 100 µM | > 100 µM | > 100 µM | > 100 µM | > 100 µM | > 100 µM | – | – | > 100 µM | > 100 µM | > 100 µM | > 100 µM | > 100 µM | > 100 µM | > 100 µM | > 100 µM | – |
| N/N=c1/nc2n(c3ncccc13)C=CNN2 | > 100 µM | > 100 µM | > 100 µM | > 100 µM | > 100 µM | > 100 µM | > 100 µM | > 100 µM | > 100 µM | – | – | – | > 100 µM | > 100 µM | – | > 100 µM | > 100 µM | > 100 µM | > 100 µM | – |
| O=C(O)CN1CCSc2ccccc2CN(CC(=O)O)CCSc2ccccc2C1 | > 100 µM | > 100 µM | > 100 µM | > 100 µM | > 100 µM | > 100 µM | > 100 µM | > 100 µM | > 100 µM | – | – | – | > 100 µM | > 100 µM | > 100 µM | > 100 µM | > 100 µM | > 100 µM | – | – |
| COCCN(C(=O)c1ccccc1)C1CCC2(SCCS2)c2[nH]c3ccccc3c21 (stereo unspecified) | > 100 µM | 68.2 µM | > 100 µM | > 100 µM | > 100 µM | > 100 µM | > 100 µM | > 100 µM | > 100 µM | > 100 µM | > 100 µM | – | > 100 µM | – | > 100 µM | > 100 µM | > 100 µM | – | > 100 µM | – |
| COC(=NC(C)C)NC(C)C | > 100 µM | > 100 µM | > 100 µM | > 100 µM | > 100 µM | > 100 µM | > 100 µM | – | – | > 100 µM | > 100 µM | – | – | > 100 µM | > 100 µM | > 100 µM | > 100 µM | > 100 µM | > 100 µM | > 100 µM |
| O=C(c1ccc2ccccc2c1)C1(I)S(=O)(=O)OCCOS1(=O)=O | > 100 µM | > 100 µM | > 100 µM | > 100 µM | > 100 µM | > 100 µM | > 100 µM | > 100 µM | > 100 µM | > 100 µM | > 100 µM | > 100 µM | 0.0298 µM | > 100 µM | – | > 100 µM | > 100 µM | – | – | – |
| CN1CCN(Cn2nc(COc3ccccc3Cl)n(/N=C/c3ccc(-c4ccc(Cl)cc4Cl)o3)c2=S)CC1 | 32.8 µM | – | – | – | 33.8 µM | 74.3 µM | 45.7 µM | 42.1 µM | – | 53.3 µM | 61.9 µM | 45.2 µM | 87.3 µM | 45.4 µM | – | 62.4 µM | 34.6 µM | – | > 100 µM | 55 µM |
| CC(=O)OCC1OC(n2c3c(c(-c4ccc(C)cc4)c(C#N)c2=S)C(=O)CC(C)(C)C3)C(OC(C)=O)C(OC(C)=O)C1OC(C)=O (stereo unspecified) | > 100 µM | > 100 µM | > 100 µM | > 100 µM | – | – | > 100 µM | > 100 µM | > 100 µM | > 100 µM | > 100 µM | – | 89 µM | – | 82.5 µM | > 100 µM | > 100 µM | 44.4 µM | 61.8 µM | – |
| O=C(CNc1ccccc1[N+](=O)[O-])Nn1cnc2ccc(S(=O)(=O)Nc3ccccc3[N+](=O)[O-])cc2c1=O | > 100 µM | > 100 µM | > 100 µM | > 100 µM | > 100 µM | > 100 µM | > 100 µM | > 100 µM | > 100 µM | > 100 µM | > 100 µM | > 100 µM | > 100 µM | > 100 µM | > 100 µM | > 100 µM | > 100 µM | > 100 µM | > 100 µM | – |
| C=C=C[P+](c1ccccc1)(c1ccccc1)c1ccccc1 | 17.7 µM | > 100 µM | > 100 µM | 10.3 µM | > 100 µM | 73.8 µM | > 100 µM | 28.2 µM | 26.7 µM | – | – | > 100 µM | – | 26.5 µM | 44.9 µM | 78.2 µM | 14.3 µM | – | – | – |
